Results on 2 compounds are retold here after patent US20240239786A1, “COMPOSITIONS AND METHODS FOR THE TREATMENT AND PREVENTION OF CANCER” (Yale University, priority 2021, published 2024).

In data set [1] the test system is MDA-MB231 breast cancer cells. The experiment in a line: Clonogenic assay, MDA-MB231. Format: cell-based. Conditions: DB4 at 3 μM, 14 days. The procedure: Cells were plated for 24 hr, pre-treated with DB4 for 1 hr, and then treated with various concentrations of olaparib for 14 days. Colonies were stained and determined for clonogenic survival.
To further substantiate the effectiveness of DB4 and mitigate the issue of off-target effects with a higher concentration range of drugs used in the MTS cytotoxicity assay, clonogenic assays were carried out to determine the long-term survival of cells in response to treatments.
The assay was conducted as described previously (Lin Z P et al., 2014, Molecular Cancer Res, 12:381-393). Cells were plated at various densities in 6-well plates in triplicate. After 24 hr of incubation, cells were treated continuously with various concentrations of olaparib, DB4, or both drugs in combination. After 12-14 days, colonies were fixed/stained with crystal violet solution and counted to determine the percentage of survival using a GelDoc imaging system with QuantityOne software (Bio-Rad, Hercules, CA).

The subject of a further data set is Hs 832(C).T cells. The experiment in a line: Caspase 3/7 assay, Hs 832(C).T. Format: cell-based. Conditions: benign ovarian cyst fibroblast cells Hs 832(C).T. The procedure: Cells were pre-treated with 30 μM DB4 for 1 hr and then treated with various concentrations of olaparib for 72 hr. Cell survival was determined by MTS cytotoxicity assay. Data are means±SD (N=3-4). […] EOB calculation was used to quantify the synergy of the combination of DB4 and various concentrations of olaparib in PEO1 or PEO4 cells as shown in FIG. 8A. EOB>0, synergism; EOB=0, additivity; EOB<0, antagonism. […] Cells were pre-treated with 30 μM DB4-F for 1 hr and then treated with various concentrations of olaparib for 72 hr. Cell survival was determined by MTS cytotoxicity assay. Data are means±SD (N=3-4). […] EOB calculation was used to quantify the synergy of the combination of DB4-F and various concentrations of olaparib in PEO1 or PEO4 cells as shown in FIG. 8B. […] Cell survival was determined by MTS cytotoxicity assay. […] Caspase 3/7 activity was expressed as RLU per μg/μl protein. […] Caspase 3/7 activity was expressed as RLU per μg/μl protein. […] Cells were treated and caspase 3/7 activity was measured as described in FIG. 8G and FIG. 8H.
Furthermore, the effects of DB4 on olaparib-induced apoptosis at 24 hr were evaluated. […]
The assay was performed as described previously (Lin Z P et al., 2018, PLOS One, 13:e0207399). […] Total protein concentration of cell lysates was determined as described above. Caspase 3/7 activity was expressed as luminescence units (RLU) per μg/μL protein for each sample.

Data set [2] is described as follows: Chemical stability of DB4 in culture medium by mass spectrometry. The data set is classed as physicochemical. Conditions: 50 μM, 37° C., 72 hr vs 0 hr. The procedure:
DB4 remained mostly active and intact after 72 hr in the culture medium. The dose response curve of DB4 in DNA synthesis inhibition in PEO4 cells was generated as determined by EdU flow cytometric analysis. […] PEO4 cells were treated with these media for 24 hr. The level of DNA synthesis inhibition was determined to interpolate and calculate % DB4 remaining compared with the control at 0 hr. FIG. 5B depicts representative results for remaining DB4 after DB4 (MW=496.1) was added to the culture medium at 50 μM for 0 hr, 24 hr, 48 hr, or 72 hr at 37° C. FIG. 5C depicts representative mass spectrum obtained from mass spectrometry that was run to detect the level of the 496.13 ion at 0 hr. FIG. 5D depicts representative mass spectrum obtained from mass spectrometry that was run to detect the level of the 496.13 ion at 72 hr.
To ensure that DB4 remained chemically stable, the time course study was performed by determining the potency of DB4 following a pre-incubation in the cell-free medium at 37° C. for up to 72 hr. Cells were treated for 24 hr with the medium containing pre-incubated DB4 and DNA synthesis was determined by the EdU incorporation assay.
DB4 was dissolved in DMEM medium at 50 μM and incubated for 0 hr, 24 hr, 48 hr, and 72 hr at 37° C. and flash frozen after incubation. […]

For data set [3] the following is noted: cited from earlier work.

As for `C=CCn1c(SCc2cccc(Cl)c2)nnc1C1CCN(Cc2nc3ccccc3s2)CC1` [DB4, 2-[(4-{4-allyl-5-[(3-chlorobenzyl)thio]-4H-1,2,4-triazol-3-yl}-1-piperidinyl)methyl]-1,3-benzothiazole], in data set [1], the “clonogenic survival in the presence of olaparib” value is “effectively reduced the clonogenic survival”. In addition, the “effect on apoptotic effects of olaparib (caspase 3/7)” value in the data set with Hs 832(C).T cells is “did not enhance the apoptotic effects of olaparib”. Also, in data set [2], the “level of DB4 by mass spectrometry” value is listed as “remained similar to that of the 0 hr control”.

For the compound `NC(=S)NN=Cc1ncccc1N` [triapine, 3-aminopyridine-2-carboxaldehyde-thiosemicarbazone, reference compound], the half-life in plasma result in data set [3] is “about 2 hr”.
